In patent US20240109937A1, “BINDING PEPTIDES AND USES THEREOF” (The Johns Hopkins University, priority 2021, published 2024):

Experiments:
CAPN1 = biological target: T1, CAPN1 (Mus musculus, UniProt O35350); assay: Calpain activity assay (Suc-LLVY-AMC cleavage) in HL-1 cells under Ca2+ overload; format: cell-based; details: Calcimycin 1 μM in HBS KV medium, dose-dependent response
T1 construct: endogenous in cells; host or cells: HL-1 cardiomyocytes
T1 sequence (O35350 1-713): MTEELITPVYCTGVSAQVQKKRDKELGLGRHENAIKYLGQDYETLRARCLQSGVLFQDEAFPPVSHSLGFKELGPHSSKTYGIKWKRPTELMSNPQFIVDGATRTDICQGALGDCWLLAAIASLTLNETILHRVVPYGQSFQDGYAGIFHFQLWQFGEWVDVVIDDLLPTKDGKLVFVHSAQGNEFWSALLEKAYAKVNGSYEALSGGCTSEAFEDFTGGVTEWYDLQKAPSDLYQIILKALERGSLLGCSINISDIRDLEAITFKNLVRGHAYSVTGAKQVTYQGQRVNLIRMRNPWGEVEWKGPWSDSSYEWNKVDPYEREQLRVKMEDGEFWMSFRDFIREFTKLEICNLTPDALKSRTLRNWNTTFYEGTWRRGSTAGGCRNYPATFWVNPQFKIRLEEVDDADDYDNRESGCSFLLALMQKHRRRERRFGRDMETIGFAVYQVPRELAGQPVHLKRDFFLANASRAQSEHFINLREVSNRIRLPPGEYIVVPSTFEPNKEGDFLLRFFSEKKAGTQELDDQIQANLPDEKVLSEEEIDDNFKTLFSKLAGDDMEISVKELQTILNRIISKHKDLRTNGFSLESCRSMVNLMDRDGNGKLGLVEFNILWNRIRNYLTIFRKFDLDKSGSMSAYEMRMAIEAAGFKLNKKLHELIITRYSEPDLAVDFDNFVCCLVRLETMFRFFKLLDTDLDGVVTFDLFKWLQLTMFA
T1 sequence (O88456 1-268 partner): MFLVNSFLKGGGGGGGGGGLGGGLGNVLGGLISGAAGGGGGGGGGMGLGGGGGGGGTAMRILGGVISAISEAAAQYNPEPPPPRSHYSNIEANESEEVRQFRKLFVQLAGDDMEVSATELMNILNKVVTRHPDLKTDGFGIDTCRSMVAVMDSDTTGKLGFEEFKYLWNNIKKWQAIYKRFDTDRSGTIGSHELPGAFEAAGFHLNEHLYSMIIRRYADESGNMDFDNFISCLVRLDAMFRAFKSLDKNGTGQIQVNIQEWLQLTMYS
Protocol: Calcium (Ca^2+) Overload Protocol: Rapid and sustained intracellular Ca^2+ overload was obtained by adding the Ca^2+-ionophore, calcimycin (1 μM), to HL-1 cells incubated for 10 min in HBS KV medium (1.26 mM CaCl2, 0.81 mM MgSO4, 0.44 mM KH2PO4, 142 mM KCl, 0.27 mM K2HPO4, 5.55 mM D-glucose, 1 mM Na3VO4, 20 mM Hepes pH 7.4). To monitor intracellular Ca^2+ variations, HL-1 cells were loaded with 5 μM Fluo-4 FF AM (Molecular Probes) in HBS Na (Sigma) for 30 min before the media was replaced with HBS KV. […] Calpain (CAPN) Activity Assay: […] HL-1 cells were grown in 24-well plates and incubated for 30 min in HBS Na (Sigma) with 25 μM Suc-LLVY-AMC (SEQ ID NO: 81) and 0.01% pluronic F127 (Molecular Probes) before treatment protocols. […] CAPN activity was inhibited via the addition of either calpeptin (Tocris) or PD150606 (Calbiochem) in the incubation medium.

HL-1 cells [1] = assay: Mitochondrial membrane potential (JC-1) assay in HL-1 cells; format: cell-based, mouse; details: Calcimycin 1 μM in HBS KV medium
Protocol: Calcium (Ca^2+) Overload Protocol: Rapid and sustained intracellular Ca^2+ overload was obtained by adding the Ca^2+-ionophore, calcimycin (1 μM), to HL-1 cells incubated for 10 min in HBS KV medium (1.26 mM CaCl2, 0.81 mM MgSO4, 0.44 mM KH2PO4, 142 mM KCl, 0.27 mM K2HPO4, 5.55 mM D-glucose, 1 mM Na3VO4, 20 mM Hepes pH 7.4). To monitor intracellular Ca^2+ variations, HL-1 cells were loaded with 5 μM Fluo-4 FF AM (Molecular Probes) in HBS Na (Sigma) for 30 min before the media was replaced with HBS KV. […] Mitochondrial Membrane Potential (MMP) Assay: MMP was determined using the potentiometric probe, JC-1. JC-1 (Molecular Probes) is a cationic carbocyanine dye that selectively accumulates in polarized mitochondria, where it forms red fluorescent aggregates (excitation 485/emission 590 nm). Upon mitochondrial depolarization, JC-1 is released into the cytosol, whereas a monomer emits green fluorescence (excitation 485 nm/emission 520 nm). Therefore, MMP variations were monitored as the ratio of fluorescent emissions at 590/520 nm using a fluorimeter plate reader (Fluoroskan Ascent Labsystem). HL-1 cells were incubated with JC-1 (1.5 μM) for 30 min at 37° C. in HBS Na before treatment protocols.

HL-1 cells [2] = assay: Intracellular Ca2+ (Fluo4 FF fluorescence) in HL-1 cells; format: cell-based, mouse; details: Calcimycin 1 μM in HBS KV medium
Protocol: Calcium (Ca^2+) Overload Protocol: Rapid and sustained intracellular Ca^2+ overload was obtained by adding the Ca^2+-ionophore, calcimycin (1 μM), to HL-1 cells incubated for 10 min in HBS KV medium (1.26 mM CaCl2, 0.81 mM MgSO4, 0.44 mM KH2PO4, 142 mM KCl, 0.27 mM K2HPO4, 5.55 mM D-glucose, 1 mM Na3VO4, 20 mM Hepes pH 7.4). To monitor intracellular Ca^2+ variations, HL-1 cells were loaded with 5 μM Fluo-4 FF AM (Molecular Probes) in HBS Na (Sigma) for 30 min before the media was replaced with HBS KV.

HL-1 cells [3] = assay: Cell viability assay (LDH release) in HL-1 cells under Ca2+ overload; format: cell-based, mouse; details: Calcimycin 1 μM in HBS KV medium, dose-dependent response
Protocol: Calcium (Ca^2+) Overload Protocol: Rapid and sustained intracellular Ca^2+ overload was obtained by adding the Ca^2+-ionophore, calcimycin (1 μM), to HL-1 cells incubated for 10 min in HBS KV medium (1.26 mM CaCl2, 0.81 mM MgSO4, 0.44 mM KH2PO4, 142 mM KCl, 0.27 mM K2HPO4, 5.55 mM D-glucose, 1 mM Na3VO4, 20 mM Hepes pH 7.4). To monitor intracellular Ca^2+ variations, HL-1 cells were loaded with 5 μM Fluo-4 FF AM (Molecular Probes) in HBS Na (Sigma) for 30 min before the media was replaced with HBS KV. […] Cell Viability Assay: HL-1 plasma membrane integrity was assessed by measuring lactate dehydrogenase (LDH) release in the culture supernatant. An enzymatic assay evaluated LDH activity. Samples of the cell-free culture supernatant were collected at indicated times in Figures/Figure Legends, while cells were lysed in 1% (w/v) Triton X-100 at the end of each experiment to estimate the remaining cellular content of LDH. The LDH activity at each time point was expressed as a percentage of total LDH activity.

CCCC[C@@H](C=O)NC(=O)[C@H](CC(C)C)NC(=O)OCc1ccccc1 [calpeptin]
reduction in Ca2+ overload-induced CAPN1 substrate hydrolysis (CAPN1): ~75%
Ca2+ overload-induced decrease in mitochondrial membrane potential (MMP) (HL-1 cells [1]): significantly attenuated
kinetics of cytosolic Ca2+ accumulation (HL-1 cells [2]): neither of them had an impact
reduction in cell death (LDH release) (HL-1 cells [3]): ~40%
